Data on two compounds can be found in patent US12435104B2, “Cyclic dinucleotides as sting agonists” (BEIGENE, LTD., priority 2019, dated 2025).

One experiment concerns STING in THP1-Dual Cells. The experiment in a line: STING cellular assay in THP1-Dual cells (ISG54-Lucia luciferase reporter). The note with it: Homo sapiens, 24 h, read-out: Cellular activity EC50 in THP1-Dual Cells.
Experiment [1] has as its system hSTING-R232 in THP1-Dual KI-hSTING-R232 Cells. Briefly: STING cellular assay in THP1-Dual KI-hSTING-R232 cells (Lucia luciferase reporter). The note with it: Homo sapiens, THP1-Dual KI-hSTING-R232, 24 h, read-out: Cellular activity EC50 in THP1-Dual KI-hSTING-R232 Cells.

Structures are written as SMILES. Structures can show the parent of a compound that is named as a salt.

For `Nc1nc2c(ncn2[C@@H]2O[C@@H]3COP(=O)(O)O[C@H]4[C@H](n5cnc6c(N)ncnc65)O[C@H](COP(=O)(O)O[C@H]3[C@H]2O)[C@]42CC2(F)F)c(=O)[nH]1` [Example 1, 2-amino-9-((1R,5′S,7′R,8′R,12a′R,14′R,15′R,15a′S)-7′-(6-amino-9H-purin-9-yl)-2,2-difluoro-2′,10′,15′-trihydroxy-2′,10′-dioxidooctahydro-12′H-spiro[cyclopropane-1,16′-[5,8]methanofuro[3,2-1][1,3,6,9,11]pentaoxa[2,10]diphosphacyclotetradecin]-14′-yl)-1,9-dihydro-6H-purin-6-one triethylamine salt], the half-maximal effective concentration (EC50) is 2680 nM with STING in THP1-Dual Cells and 3210 nM in experiment [1].
For the compound `Nc1nc2c(ncn2[C@@H]2O[C@@H]3CO[P@@](O)(=S)O[C@H]4[C@H](n5cnc6c(N)ncnc65)O[C@H](COP(O)(=S)O[C@H]3[C@H]2F)[C@]42CC2(F)F)c(=O)[nH]1` (stereo partly drawn) [Example 2, 2-amino-9-((1R,5′S,7′R,8′R,10′R,12a′R,14′R,15′R,15a′R)-7′-(6-amino-9H-purin-9-yl)-2,2,15′-trifluoro-2′,10′-dihydroxy-2′,10′-disulfidooctahydro-12′H-spiro[cyclopropane-1,16′-[5,8]methanofuro[3,2-1][1,3,6,9,11]pentaoxa[2,10]diphosphacyclotetradecin]-14′-yl)-1,9-dihydro-6H-purin-6-one], the EC50 amounted to 1760 nM with STING in THP1-Dual Cells and 2320 nM in experiment [1].
